Patent publication US5840684A, “Glycopeptide antibiotic derivatives” (Eli Lilly and Company, priority 1995, dated 1998)
≈ marks a conversion by molar mass, not a printed value.

Tests used:
Streptococcus pyogenes = experiment: mouse protection, experimentally-induced infection; format: in vivo; conditions: mice infected with Streptococcus pyogenes, two doses
Streptococcus pneumoniae = experiment: mouse protection, experimentally-induced infection; format: in vivo; conditions: mice infected with Streptococcus pneumoniae, two doses
[1] = system: Staphylococcus haemolyticus 105; experiment: broth micro-dilution MIC; format: cell-based
Protocol: (§1) The formula I compounds have in vitro and in vivo activity against Gram-positive pathogenic bacteria. The MIC's were determined using a standard broth micro-dilution assay.

[2] = system: Streptococcus pneumoniae P1; experiment: broth micro-dilution MIC; format: cell-based
Protocol: as §1

[3] = system: Staphylococcus epidermidis 270; experiment: broth micro-dilution MIC; format: cell-based
Protocol: as §1

[4] = system: Enterococcus gallinarum 245; experiment: broth micro-dilution MIC; format: cell-based; conditions: Enterococcus gallinarum 245
Protocol: as §1

Entercoccus faecium 2041 = experiment: broth micro-dilution MIC; format: cell-based; conditions: Entercoccus faecium 2041
Protocol: as §1

[5] = system: Staphylococcus haemolyticus 415; experiment: broth micro-dilution MIC; format: cell-based
Protocol: as §1

Entercoccus faecium 180 = experiment: broth micro-dilution MIC; format: cell-based; conditions: Entercoccus faecium 180
Protocol: as §1

[6] = system: vancomycin-resistant enterococci; experiment: broth micro-dilution, mean geometric MIC; format: cell-based, Enterococcus faecium and Enterococcus faecalis; conditions: enterococci, 24-hour incubation
[7] = system: Staphylococcus aureus X400; experiment: broth micro-dilution MIC; format: cell-based
Protocol: (§2) The MIC's were determined using a standard broth micro-dilution assay.

[8] = system: Staphylococcus aureus 447; experiment: broth micro-dilution MIC; format: cell-based
Protocol: as §2

[9] = system: Staphylococcus aureus SA1199A; experiment: broth micro-dilution MIC; format: cell-based
Protocol: as §2

[10] = system: Streptococcus pyogenes C203; experiment: broth micro-dilution MIC; format: cell-based
Protocol: as §2

[11] = system: Staphylococcus aureus 489; experiment: broth micro-dilution MIC; format: cell-based
Protocol: as §2

[12] = system: Staphylococcus aureus 446; experiment: broth micro-dilution MIC; format: cell-based
Protocol: as §2

[13] = system: Staphylococcus aureus X778; experiment: broth micro-dilution MIC; format: cell-based
Protocol: as §2

[14] = system: Entercoccus faecium 180-1; experiment: broth micro-dilution MIC; format: cell-based
Protocol: as §2

[15] = system: vancomycin-susceptible enterococci; experiment: broth micro-dilution, mean geometric MIC; format: cell-based, Enterococcus faecium and Enterococcus faecalis; conditions: enterococci, 24-hour incubation
[16] = system: Staphylococcus aureus S13E; format: cell-based
Protocol: as §2

[17] = system: Staphylococcus aureus SA1199B; format: cell-based
Protocol: as §2

[18] = system: Staphylococcus aureus SA1199; experiment: broth micro-dilution MIC; format: cell-based
Protocol: as §2

[19] = system: Staphylococcus aureus 491; experiment: broth micro-dilution MIC; format: cell-based
Protocol: as §2

Entercoccus faecium 276 = experiment: broth micro-dilution MIC; format: cell-based
Protocol: as §2

Structure (SMILES) | ED50 (Streptococcus pyogenes) [mg/kg/2] | ED50 (Streptococcus pneumoniae) [mg/kg/2] | MIC [1] [µg/mL] | MIC [2] [µg/mL] | MIC [3] [µg/mL] | MIC [4] [µg/mL] | MIC (Entercoccus faecium 2041) [µg/mL] | MIC [5] [µg/mL] | MIC (Entercoccus faecium 180) [µg/mL] | mean geometric MIC, Vancomycin Resistant Strains [6] [µg/mL] | MIC [7] [µg/mL] | MIC [8] [µg/mL] | MIC [9] | MIC [10] [µg/mL] | MIC [13] [µg/mL] | MIC [14] [µg/mL] | mean geometric MIC, Vancomycin Sensitive Strains [15] [µg/mL] | MIC [16] [µg/mL] | MIC [17] | MIC [18] [µg/mL] | other results
CNC(CC(C)C)C(=O)NC1C(=O)NC(CC(N)=O)C(=O)NC2C(=O)NC3C(=O)NC(C(=O)NC(C(=O)O)c4cc(O)cc(O)c4-c4cc3ccc4O)C(OC3CC(C)(N)C(O)C(C)O3)c3ccc(c(Cl)c3)Oc3cc2cc(c3OC2OC(CO)C(O)C(O)C2OC2CC(C)(NCc3ccc(OCc4ccc([N+](=O)[O-])cc4)cc3)C(O)C(C)O2)Oc2ccc(cc2Cl)C1O (stereo not drawn) [Compound 131] | < 0.031 | 0.077 | 1 (≈ 0.545 µM) | ≤ 0.06 | 1 (≈ 0.545 µM) | 2 (≈ 1.09 µM) | ≤ 0.06 | 2 (≈ 1.09 µM) | ≤ 0.06 | 0.84 | 1 (≈ 0.545 µM) | 1 (≈ 0.545 µM) | ≤ 0.06 µg/mL | ≤ 0.06 | 0.5 (≈ 0.273 µM) | ≤ 0.06 | 0.028 | 1 (≈ 0.545 µM) | 1 µg/mL (≈ 0.545 µM) |  | MIC [11]: 1 µg/mL (≈ 0.545 µM); MIC [12]: 2 µg/mL (≈ 1.09 µM)
CNC(CC(C)C)C(=O)NC1C(=O)NC(CC(N)=O)C(=O)NC2C(=O)NC3C(=O)NC(C(=O)NC(C(=O)O)c4cc(O)cc(O)c4-c4cc3ccc4O)C(OC3CC(C)(N)C(O)C(C)O3)c3ccc(c(Cl)c3)Oc3cc2cc(c3OC2OC(CO)C(O)C(O)C2OC2CC(C)(NCc3ccc(OCCCc4ccccc4)cc3)C(O)C(C)O2)Oc2ccc(cc2Cl)C1O (stereo not drawn) [Compound 223] | < 0.031 | < 0.031 | 1 (≈ 0.55 µM) | ≤ 0.06 | 0.5 (≈ 0.275 µM) | 1 (≈ 0.55 µM) | ≤ 0.06 | 1 (≈ 0.55 µM) | ≤ 0.06 | 0.79 | 1 (≈ 0.55 µM) | 0.5 (≈ 0.275 µM) | ≤ 0.06 µg/mL | ≤ 0.06 | 1 (≈ 0.55 µM) | ≤ 0.06 | 0.055 | 0.5 (≈ 0.275 µM) | 1 µg/mL (≈ 0.55 µM) | 2 (≈ 1.1 µM) | MIC [11]: 1 µg/mL (≈ 0.55 µM)
CN[C@H](CC(C)C)C(=O)N[C@H]1C(=O)N[C@@H](CC(N)=O)C(=O)N[C@H]2C(=O)N[C@H]3C(=O)N[C@H](C(=O)N[C@H](C(=O)O)c4cc(O)cc(O)c4-c4cc3ccc4O)[C@H](O[C@H]3C[C@](C)(N)[C@@H](O)[C@H](C)O3)c3ccc(c(Cl)c3)Oc3cc2cc(c3O[C@@H]2O[C@H](CO)[C@@H](O)[C@H](O)[C@H]2O[C@H]2C[C@](C)(NCc3ccc(-c4ccc(C)cc4)cc3)[C@@H](O)[C@H](C)O2)Oc2ccc(cc2Cl)[C@H]1O [Compound 97] | 0.066 | 0.038 | 2 (≈ 1.13 µM) | ≤ 0.06 | 1 (≈ 0.564 µM) | 2 (≈ 1.13 µM) | ≤ 0.06 | 2 (≈ 1.13 µM) |  | 0.71 | 1 (≈ 0.564 µM) | 1 (≈ 0.564 µM) | ≤ 0.06 µg/mL | ≤ 0.06 |  | ≤ 0.06 | 0.054 |  | 1 µg/mL (≈ 0.564 µM) | 2 (≈ 1.13 µM) | MIC [19]: 0.5 µg/mL (≈ 0.282 µM); MIC [12]: 1 µg/mL (≈ 0.564 µM); MIC (Entercoccus faecium 276): ≤ 0.06 µg/mL
CCOc1cc(CNC2(C)CC(OC3C(Oc4c5cc6cc4Oc4ccc(cc4Cl)C(OC4CC(C)(N)C(O)C(C)O4)C4NC(=O)C(NC(=O)C6NC(=O)C(CC(N)=O)NC(=O)C(NC(=O)C(CC(C)C)NC)C(O)c6ccc(c(Cl)c6)O5)c5ccc(O)c(c5)-c5c(O)cc(O)cc5C(C(=O)O)NC4=O)OC(CO)C(O)C3O)OC(C)C2O)ccc1OCC1CCCCC1 (stereo not drawn) [Compound 105] | 0.12 | 0.041 | 1 (≈ 0.544 µM) | ≤ 0.06 |  | 1 (≈ 0.544 µM) |  | 1 (≈ 0.544 µM) |  | 0.84 | 0.5 (≈ 0.272 µM) | 0.5 (≈ 0.272 µM) |  | ≤ 0.06 | 0.5 (≈ 0.272 µM) | ≤ 0.06 | 0.062 | 0.5 (≈ 0.272 µM) | 0.5 µg/mL (≈ 0.272 µM) | 1 (≈ 0.544 µM) | MIC [11]: 0.5 µg/mL (≈ 0.272 µM)
CCCCCCCCCOc1ccc(CNC2(C)CC(OC3C(Oc4c5cc6cc4Oc4ccc(cc4Cl)C(OC4CC(C)(N)C(O)C(C)O4)C4NC(=O)C(NC(=O)C6NC(=O)C(CC(N)=O)NC(=O)C(NC(=O)C(CC(C)C)NC)C(O)c6ccc(c(Cl)c6)O5)c5ccc(O)c(c5)-c5c(O)cc(O)cc5C(C(=O)O)NC4=O)OC(CO)C(O)C3O)OC(C)C2O)cc1 (stereo not drawn) [Compound 8] | > 0.5 | 0.273 | 8 (≈ 4.38 µM) | ≤ 0.06 | 4 (≈ 2.19 µM) | 8 (≈ 4.38 µM) | 4 (≈ 2.19 µM) | 8 (≈ 4.38 µM) | 1 (≈ 0.548 µM) | 1.0 | 8 (≈ 4.38 µM) | 8 (≈ 4.38 µM) | 2 µg/mL (≈ 1.1 µM) | ≤ 0.06 | 8 (≈ 4.38 µM) | 0.5 (≈ 0.274 µM) |  | 8 (≈ 4.38 µM) |  | 2 (≈ 1.1 µM) | MIC [19]: 4 µg/mL (≈ 2.19 µM); MIC [12]: 2 µg/mL (≈ 1.1 µM); MIC (Entercoccus faecium 276): 4 µg/mL (≈ 2.19 µM)
CN[C@H](CC(C)C)C(=O)N[C@H]1C(=O)N[C@@H](CC(N)=O)C(=O)N[C@H]2C(=O)N[C@H]3C(=O)N[C@H](C(=O)N[C@H](C(=O)O)c4cc(O)cc(O)c4-c4cc3ccc4O)[C@H](O[C@H]3C[C@](C)(N)[C@@H](O)[C@H](C)O3)c3ccc(cc3)Oc3cc2cc(c3O[C@@H]2O[C@H](CO)[C@@H](O)[C@H](O)[C@H]2O[C@H]2C[C@](C)(N)[C@@H](O)[C@H](C)O2)Oc2ccc(cc2Cl)[C@H]1O [Compound A82846A, A82846A, reference compound] | 0.084 | 0.39 | 0.5 (≈ 0.321 µM) |  |  | 0.125 (≈ 0.0802 µM) | 0.125 (≈ 0.0802 µM) | 1 (≈ 0.642 µM) | 16 (≈ 10.3 µM) |  | 0.125 (≈ 0.0802 µM) |  | ≤ .06 µg/mL |  | 0.125 (≈ 0.0802 µM) | 0.125 (≈ 0.0802 µM) | 1.7 | 0.125 (≈ 0.0802 µM) | ≤ .06 µg/mL | 0.125 (≈ 0.0802 µM) | MIC [11]: 0.5 µg/mL (≈ 0.321 µM); MIC (Entercoccus faecium 276): 0.125 µg/mL (≈ 0.0802 µM)
